# Data reported in patent US11542259B2, “Compounds for the treatment of kinase-dependent disorders” (Exelixis, Inc., priority 2018, dated 2023).
# How the values were obtained:
# [1] = molecular target: Met (Homo sapiens (Human), UniProt P08581); assay: Met autophosphorylation ELISA in PC-3 cells; type: cell-based; details: cellular, HGF stimulated, read-out: c-Met IC50
# In short: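 PC-3 cells serum-starved 3 h, treated 1 h with 8-point compound series (0.3% DMSO), then stimulated with 100 ng/mL human HGF for 10 min. Lysate phospho-Met (panTyr) measured by sandwich ELISA; IC50 from 4-parameter logistic fit against DMSO and reference-inhibitor controls.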
# [2] = molecular target: Mer (Homo sapiens (Human), UniProt Q12866); assay: Mer autophosphorylation ELISA in transient transfected 293A cells; type: cell-based; details: cellular, MERTK transfected 293A cells
# Chain of Mer (Q12866 21-999): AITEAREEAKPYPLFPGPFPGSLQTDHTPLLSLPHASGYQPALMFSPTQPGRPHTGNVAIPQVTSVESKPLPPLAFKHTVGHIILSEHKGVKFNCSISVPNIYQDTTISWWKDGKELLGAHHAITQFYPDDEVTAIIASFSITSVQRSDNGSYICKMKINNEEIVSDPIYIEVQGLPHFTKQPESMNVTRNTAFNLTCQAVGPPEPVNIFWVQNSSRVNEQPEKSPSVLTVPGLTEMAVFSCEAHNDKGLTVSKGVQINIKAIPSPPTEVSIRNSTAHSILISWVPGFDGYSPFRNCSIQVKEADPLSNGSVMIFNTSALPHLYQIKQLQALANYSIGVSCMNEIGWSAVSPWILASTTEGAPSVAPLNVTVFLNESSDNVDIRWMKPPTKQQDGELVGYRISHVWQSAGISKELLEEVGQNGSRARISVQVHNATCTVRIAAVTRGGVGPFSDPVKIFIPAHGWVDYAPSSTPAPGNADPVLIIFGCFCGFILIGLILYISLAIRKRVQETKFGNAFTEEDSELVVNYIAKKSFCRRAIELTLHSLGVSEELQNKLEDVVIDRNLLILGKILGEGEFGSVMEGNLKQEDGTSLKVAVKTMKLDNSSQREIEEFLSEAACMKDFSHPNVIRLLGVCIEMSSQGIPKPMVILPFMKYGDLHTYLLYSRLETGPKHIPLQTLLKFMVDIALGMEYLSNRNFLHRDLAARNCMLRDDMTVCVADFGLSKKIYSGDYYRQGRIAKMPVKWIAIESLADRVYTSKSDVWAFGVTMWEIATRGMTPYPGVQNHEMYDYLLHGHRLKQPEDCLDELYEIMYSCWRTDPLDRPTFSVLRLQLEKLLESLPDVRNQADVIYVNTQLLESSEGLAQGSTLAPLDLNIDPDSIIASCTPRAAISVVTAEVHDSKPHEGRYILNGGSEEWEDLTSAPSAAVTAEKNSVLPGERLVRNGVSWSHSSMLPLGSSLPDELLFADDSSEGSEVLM
# Procedure: 293A cells (Thermo Fisher #R70507) were seeded at 1.5×10^6 cells/well onto 100 mm dish (Greiner #664169), in DMEM (Thermo Fisher #11995-040) containing 10% FBS (Thermo Fisher #26140-079), 1% MEM NEAA (Thermo Fisher #11140-050), 1% GlutaMax (Thermo Fisher #35050-061), and 1% Penicillin Streptomycin (Thermo Fisher #15140-122). 293A cells were incubated at 37° C., 5% CO2 for 24 h and then transfected with 6 μg MERTK DNA (Genecopoeia #EX-Z8208-M02) using TransIT LT1 transfection reagent (Mirus-Bio #MIR2305). After 24 h incubation, the transfected 293A cells were seeded at 1×10^5 cells/well onto 96-well plates (Corning #3904) in DMEM growth medium overnight. Test compounds were serially diluted to produce an 8-point dose curve in fresh serum-free medium to a final concentration of 0.3% DMSO (vehicle) and added to the cells and incubated for 1 h. Cells were then immediately lysed with 150 μL of cold 1× lysis buffer [20 mM Tris, 137 mM sodium chloride, 2 mM EDTA, 10% glycerol, 1% NP-40 alternative, 1 mM activated sodium orthovanadate, 1 mM PefaBloc SC (Sigma-Aldrich #11429868001), protease/phosphatase inhibitor tablet (Thermo Fisher #A32959)]. Lysates were clarified by centrifugation and 50 μL/well added into the human phospho-Mer DuoSet IC ELISA (R&D Systems #DYC2579-2). Assay was performed according to manufacturer's instructions and sample phospho-Mer concentrations were extrapolated using human phospho-Mer control (R&D Systems #841793) as a standard. Positive control wells (100% activity) contained DMSO-treated cell lysates. Negative control wells (0% activity) contained reference inhibitor-treated cell lysates. IC50 values were calculated by nonlinear regression analysis using a 4-parameter logistic curve fit in ActivityBase XE (IDBS).
# [3] = molecular target: AXL (Homo sapiens (Human), UniProt P30530); assay: AXL autophosphorylation ELISA in A-172 cells; type: cell-based; details: cellular, Gas6 stimulated
# Chain of AXL (P30530 26-894): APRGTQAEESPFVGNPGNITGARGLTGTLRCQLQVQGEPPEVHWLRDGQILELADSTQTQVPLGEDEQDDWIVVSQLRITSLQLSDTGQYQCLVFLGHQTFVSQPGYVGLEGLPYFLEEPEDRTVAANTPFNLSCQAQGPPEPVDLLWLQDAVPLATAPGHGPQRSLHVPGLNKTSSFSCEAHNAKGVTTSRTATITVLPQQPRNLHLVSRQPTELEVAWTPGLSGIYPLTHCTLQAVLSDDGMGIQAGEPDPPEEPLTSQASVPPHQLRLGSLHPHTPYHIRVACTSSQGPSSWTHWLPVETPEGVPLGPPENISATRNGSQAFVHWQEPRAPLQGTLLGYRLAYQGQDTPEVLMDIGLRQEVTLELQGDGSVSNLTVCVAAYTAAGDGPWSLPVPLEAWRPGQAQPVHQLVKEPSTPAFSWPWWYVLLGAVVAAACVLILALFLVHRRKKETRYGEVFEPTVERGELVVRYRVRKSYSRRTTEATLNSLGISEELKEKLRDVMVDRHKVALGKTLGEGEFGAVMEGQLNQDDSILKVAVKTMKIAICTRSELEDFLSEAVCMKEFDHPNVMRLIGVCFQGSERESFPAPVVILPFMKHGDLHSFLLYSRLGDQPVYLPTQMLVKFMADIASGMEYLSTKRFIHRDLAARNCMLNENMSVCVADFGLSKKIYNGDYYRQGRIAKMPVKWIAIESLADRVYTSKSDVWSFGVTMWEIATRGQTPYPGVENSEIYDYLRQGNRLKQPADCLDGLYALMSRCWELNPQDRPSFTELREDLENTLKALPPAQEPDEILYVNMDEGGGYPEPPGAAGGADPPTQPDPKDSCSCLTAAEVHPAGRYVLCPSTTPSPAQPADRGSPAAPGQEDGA
# In short: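 Serum-starved (24 h) A-172 glioblastoma cells pretreated 1 h with compounds (8-point curve, 0.3% DMSO), then stimulated 15 min with 1 μg/mL Gas6. Lysate phospho-AXL measured by sandwich ELISA against a phospho-AXL standard; IC50 from 4-parameter logistic fit between DMSO and reference-inhibitor controls.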
# [4] = molecular target: KDR (Homo sapiens (Human), UniProt P35968); assay: KDR autophosphorylation ELISA in HUVEC cells; type: cell-based; details: cellular, VEGF165 stimulated
# Chain of KDR (P35968 20-1356): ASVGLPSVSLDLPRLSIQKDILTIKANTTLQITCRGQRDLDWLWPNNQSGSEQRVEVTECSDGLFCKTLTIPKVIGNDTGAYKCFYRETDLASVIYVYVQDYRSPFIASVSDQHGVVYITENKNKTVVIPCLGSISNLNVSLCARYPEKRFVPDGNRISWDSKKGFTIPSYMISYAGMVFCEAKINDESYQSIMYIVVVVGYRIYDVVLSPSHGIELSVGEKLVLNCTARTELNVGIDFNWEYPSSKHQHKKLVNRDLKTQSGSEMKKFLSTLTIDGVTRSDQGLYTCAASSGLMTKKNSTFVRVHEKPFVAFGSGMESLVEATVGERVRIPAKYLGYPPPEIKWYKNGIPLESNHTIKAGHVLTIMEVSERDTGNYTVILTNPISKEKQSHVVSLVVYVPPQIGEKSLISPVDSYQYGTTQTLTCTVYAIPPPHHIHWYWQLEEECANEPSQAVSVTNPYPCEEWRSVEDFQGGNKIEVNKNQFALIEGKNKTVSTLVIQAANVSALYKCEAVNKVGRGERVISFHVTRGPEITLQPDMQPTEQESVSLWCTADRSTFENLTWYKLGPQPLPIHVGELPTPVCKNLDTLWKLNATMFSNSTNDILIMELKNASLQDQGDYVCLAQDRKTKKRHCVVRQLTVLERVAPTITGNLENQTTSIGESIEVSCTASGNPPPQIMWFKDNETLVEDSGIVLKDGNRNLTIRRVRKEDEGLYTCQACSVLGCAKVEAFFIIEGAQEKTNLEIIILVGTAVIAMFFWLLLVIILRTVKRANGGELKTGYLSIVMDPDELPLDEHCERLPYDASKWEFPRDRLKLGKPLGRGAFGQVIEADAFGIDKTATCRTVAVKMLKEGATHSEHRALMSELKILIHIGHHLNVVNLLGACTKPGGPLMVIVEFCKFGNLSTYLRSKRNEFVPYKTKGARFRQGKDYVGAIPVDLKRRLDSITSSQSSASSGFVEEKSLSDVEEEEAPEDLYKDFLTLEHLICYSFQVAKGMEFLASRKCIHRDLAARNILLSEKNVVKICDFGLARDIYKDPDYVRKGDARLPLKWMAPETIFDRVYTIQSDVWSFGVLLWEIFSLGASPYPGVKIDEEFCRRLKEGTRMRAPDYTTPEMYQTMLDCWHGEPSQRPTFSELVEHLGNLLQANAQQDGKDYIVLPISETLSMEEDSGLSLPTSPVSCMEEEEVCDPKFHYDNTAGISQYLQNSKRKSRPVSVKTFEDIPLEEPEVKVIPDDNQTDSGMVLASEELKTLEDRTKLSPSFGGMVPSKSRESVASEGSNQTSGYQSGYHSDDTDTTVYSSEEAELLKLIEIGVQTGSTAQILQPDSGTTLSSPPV
# In short: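 Phospho-KDR levels in lysates were measured by ELISA and referenced to stimulated-vehicle (100%) and unstimulated (0%) wells, IC50 from 4-parameter logistic fit. HUVEC, starved 24 h in serum-free medium, received an 8-point compound series (0.3% DMSO) for 1 h before a 5 min 100 ng/mL VEGF165 challenge.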
# [5] = molecular target: Human Mer (residues R557-E882 with H628Q and R794A) (Homo sapiens (Human), UniProt Q12866); assay: Human Mer kinase assay (33P radiometric, KinaseProfiler); type: biochemical; details: 10 μM ATP
# Chain of Human Mer (residues R557-E882 with H628Q and R794A) (Q12866 557-882, stated change not applied): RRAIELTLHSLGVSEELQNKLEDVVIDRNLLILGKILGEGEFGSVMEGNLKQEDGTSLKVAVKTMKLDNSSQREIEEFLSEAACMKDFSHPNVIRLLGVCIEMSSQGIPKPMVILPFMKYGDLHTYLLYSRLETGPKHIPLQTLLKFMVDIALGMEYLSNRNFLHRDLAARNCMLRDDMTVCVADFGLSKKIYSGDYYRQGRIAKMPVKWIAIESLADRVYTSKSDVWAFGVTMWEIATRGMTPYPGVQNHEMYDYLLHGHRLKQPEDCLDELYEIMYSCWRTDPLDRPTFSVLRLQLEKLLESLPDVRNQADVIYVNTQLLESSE
# Procedure: (§1) Kinase activity and compound inhibition were investigated using the ^33P-Phosphoryl transfer radiometric kinase assay, performed using the KinaseProfiler™ service of Eurofins Pharma Discovery Services UK Limited. Dose-response experiments were performed using nine compound concentrations in a 96-well microtiter plate. For each assay, all compounds were prepared to a 50× final assay concentration (50 μM) in 100% DMSO, then diluted in a half-log series, with the final top concentration at 1 μM. This working stock of the compound was added to the assay well as the first component in the reaction, followed by the remaining components as detailed in the following assay protocols below. The positive control wells (100% kinase activity) contain all components of the reaction including 2% DMSO (control for solvent effects), except the compound of interest. Blank wells contain all components of the reaction, with the reference inhibitor, staurosporine. This reference compound was used to abolish kinase activity and generated the 0% kinase activity base-line. IC50 values were calculated by nonlinear regression analysis using the sigmoidal dose-response (variable slope) curve fit on XLFit version 5.3 (ID Business Solutions).
# Human Mer (residues R557-E882 with H628Q and R794A, 0.7 nM) was incubated with 8 mM MOPS pH 7.0, 0.2 mM EDTA, 30 mM NaCl, 250 μM GGMEDIYFEFMGGKKK (SEO ID NO. 44). 10 mM magnesium acetate, and 10 μM [γ-^33P-ATP]. The reaction was initiated by the addition of the Mg/ATP mix. After incubation for 40 minutes at room temperature, the reaction was stopped by the addition of phosphoric acid to a concentration of 0.5%. A reaction aliquot of 10 μL was then spotted onto a P30 filtermat and washed four times for 4 minutes in 0.425% phosphoric acid and once in methanol prior to drying and scintillation counting. Incorporated ^33P was measured using the Wallac Microbeta scintillation counter (Perkin Elmer).
# [6] = molecular target: Human Met (residues R974-S1390 with A1209G and V1290L) (Homo sapiens, UniProt P08581); assay: Human Met kinase assay (33P radiometric, KinaseProfiler); type: biochemical; details: 10 μM ATP, read-out: c-Met IC50
# Procedure: as §1
# Human Met (residues R974-S1390 with A1209G and V1290L, 3.4 nM) was incubated with 8 mM MOPS pH 7.0, 0.2 mM EDTA, 250 μM KKKGQEEEYVFIE (SEO ID NO. 45), 1 mM sodium orthovanadate, 5 mM […], 10 mM magnesium acetate, and 10 μM [γ-33P-ATP]. The reaction was initiated by the addition of the Mg/ATP mix. After incubation for 40 minutes at room temperature, the reaction was stopped by the addition of phosphoric acid to a concentration of 0.5%. A reaction aliquot of […] was then spotted onto a P30 filtermat and washed four times for 4 minutes in 0.425% phosphoric acid and once in methanol prior to drying and scintillation counting. Incorporated 33P was measured using the Wallac Microbeta scintillation counter (Perkin Elmer).
# [7] = molecular target: Human Axl (residues H473-A894 with Q764R) (Homo sapiens (Human), UniProt P30530, Q764R); assay: Human AXL kinase assay (33P radiometric, KinaseProfiler); type: biochemical; details: 10 μM ATP
# Procedure: as §1
# Human Axl (residues H473-A894 with Q764R, 161 nM) was incubated with 8 mM MOPS pH 7.0, 0.2 mM EDTA, 250 μM KKSRGDYMTMQIG (SEO ID NO. 43) 10 mM magnesium acetate and 10 μM [γ-33P-ATP]. The reaction was initiated by the addition of the Mg/ATP mix. After incubation for 40 minutes at room temperature, the reaction was stopped by the addition of phosphoric acid to a concentration of 0.5%. A reaction aliquot of 10 μL was then spotted onto a P30 filtermat and washed four times for 4 minutes in 0.425% phosphoric acid and once in methanol prior to drying and scintillation counting. Incorporated ^33P was measured using the Wallac Microbeta scintillation counter (Perkin Elmer).
# Chain of Met (P08581 25-1390): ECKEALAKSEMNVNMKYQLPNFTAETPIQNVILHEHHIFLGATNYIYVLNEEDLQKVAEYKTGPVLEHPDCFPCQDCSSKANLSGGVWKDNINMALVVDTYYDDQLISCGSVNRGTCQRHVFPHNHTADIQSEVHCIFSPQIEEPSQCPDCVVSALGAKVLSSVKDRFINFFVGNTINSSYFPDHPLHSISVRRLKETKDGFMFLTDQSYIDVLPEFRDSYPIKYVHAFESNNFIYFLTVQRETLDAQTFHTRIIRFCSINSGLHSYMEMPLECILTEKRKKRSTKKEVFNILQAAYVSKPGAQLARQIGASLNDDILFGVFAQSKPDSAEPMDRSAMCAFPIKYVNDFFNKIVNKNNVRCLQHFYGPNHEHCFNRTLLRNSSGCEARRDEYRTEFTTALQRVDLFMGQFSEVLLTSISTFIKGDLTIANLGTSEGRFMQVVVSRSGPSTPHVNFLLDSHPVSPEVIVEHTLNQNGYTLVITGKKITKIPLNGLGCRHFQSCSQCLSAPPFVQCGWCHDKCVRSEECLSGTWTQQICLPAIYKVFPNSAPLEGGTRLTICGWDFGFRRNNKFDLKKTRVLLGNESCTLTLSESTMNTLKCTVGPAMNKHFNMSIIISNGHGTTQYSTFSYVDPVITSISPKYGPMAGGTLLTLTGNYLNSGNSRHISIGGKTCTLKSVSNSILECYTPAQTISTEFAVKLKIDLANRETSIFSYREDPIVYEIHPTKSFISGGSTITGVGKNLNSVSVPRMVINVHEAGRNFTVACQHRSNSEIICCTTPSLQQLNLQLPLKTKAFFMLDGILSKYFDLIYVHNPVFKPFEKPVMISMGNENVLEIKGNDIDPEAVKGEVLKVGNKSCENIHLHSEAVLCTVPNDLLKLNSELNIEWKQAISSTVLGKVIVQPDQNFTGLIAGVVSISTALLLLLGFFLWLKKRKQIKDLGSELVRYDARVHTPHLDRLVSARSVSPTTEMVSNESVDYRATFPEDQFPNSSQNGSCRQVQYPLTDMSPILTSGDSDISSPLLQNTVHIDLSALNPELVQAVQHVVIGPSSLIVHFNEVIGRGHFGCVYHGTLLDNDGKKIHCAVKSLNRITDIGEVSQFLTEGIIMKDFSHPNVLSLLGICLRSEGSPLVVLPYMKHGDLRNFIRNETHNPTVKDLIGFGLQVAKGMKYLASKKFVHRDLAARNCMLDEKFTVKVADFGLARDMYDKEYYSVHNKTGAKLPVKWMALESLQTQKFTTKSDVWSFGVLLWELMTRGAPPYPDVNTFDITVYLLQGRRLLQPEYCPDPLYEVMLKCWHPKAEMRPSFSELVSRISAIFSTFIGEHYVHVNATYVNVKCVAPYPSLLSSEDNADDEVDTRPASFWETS
SMILES,IC50 [1] [nM],IC50 [2] [nM],IC50 [3] [nM],IC50 [4] [nM],IC50 [5] [nM],IC50 [6] [nM],IC50 [7] [nM]
"COc1cc2nccc(Oc3ccc(NC(=O)C4(C(=O)Nc5ccc(F)cc5)CC4)cc3)c2cc1C(=O)O [Compound 6, 4-[4-[[1-[(4-fluorophenyl)carbamoyl]-cyclopropanecarbonyl]amino]-phenoxy]-7-methoxyquinoline-6-carboxylic acid]",> 300,–,–,> 300,10 to 100,≤ 10,100 to 1000
"COc1cc2nccc(Oc3ccc(NC(=O)C4(C(=O)Nc5ccc(F)cc5)CC4)cc3)c2cc1C(=O)NOCCO [Compound 27, 1-N′-(4-fluorophenyl)-1-N-[4-[6-(2-hydroxyethoxycarbamoyl)-7-methoxyquinolin-4-yl]oxyphenyl]cyclopropane-1,1-dicarboxamide]",10 to 100,10 to 100,≤ 10,≤ 10,–,–,–
"COc1cc2nccc(Oc3ccc(NC(=O)C4(C(=O)Nc5ccc(F)cc5)CC4)cc3)c2cc1C(C)=O [Compound 34, 1-N-[4-(6-acetyl-7-methoxyquinolin-4-yl)oxyphenyl]-1-N′-(4-fluorophenyl)cyclopropane-1,1-dicarboxamide]",10 to 100,≤ 10,≤ 10,≤ 10,–,–,–
"O=C(Nc1ccc(F)cc1)C1(C(=O)Nc2ccc(Oc3ccnc4cc(OCCO)c(-c5ncco5)cc34)cc2)CC1 [Compound 50, 1-N′-(4-Fluorophenyl)-1-N-[4-[7-(2-hydroxyethoxy)-6-(1,3-oxazol-2-yl)quinolin-4-yl]oxyphenyl]cyclopropane-1,1-dicarboxamide]",≤ 10,≤ 10,≤ 10,≤ 10,–,–,–
"COc1cc2nccc(Oc3ccc(NC(=O)C4(C(=O)Nc5ccc(F)cc5)CC4)cc3)c2cc1-c1cccn1C(=O)OC(C)(C)C [Compound 181, tert-butyl 2-[4-[4-[[1-[(4-fluorophenyl)carbamoyl]cyclopropanecarbonyl]amino]phenoxy]-7-methoxyquinolin-6-yl]pyrrole-1-carboxylate]",–,–,–,–,10 to 100,10 to 100,100 to 1000

# More lines, now with the values ahead:
IC50 [1] [nM],IC50 [2] [nM],IC50 [3] [nM],IC50 [4] [nM],IC50 [5] [nM],IC50 [6] [nM],IC50 [7] [nM],SMILES
100 to 300,> 300,100 to 300,10 to 100,–,–,–,"COc1cc2nccc(Oc3ccc(NC(=O)C4(C(=O)Nc5ccc(F)cc5)CC4)cc3)c2cc1C(=O)NOCC(O)CO (single isomer, unassigned) [Compound 30, 1-N-[4-[6-(2,3-dihydroxypropoxycarbamoyl)-7-methoxyquinolin-4-yl]oxyphenyl]-1-N′-(4-fluorophenyl)cyclopropane-1,1-dicarboxamide]"
100 to 300,> 300,10 to 100,10 to 100,–,–,–,"COc1cc2nccc(Oc3ccc(NC(=O)C4(C(=O)Nc5ccc(F)cc5)CC4)cc3)c2cc1C(=O)NOCC(O)CO (single isomer, unassigned) [Compound 31, 1-N-[4-[6-(2,3-dihydroxypropoxycarbamoyl)-7-methoxyquinolin-4-yl]oxyphenyl]-1-N′-(4-fluorophenyl)cyclopropane-1,1-dicarboxamide]"
10 to 100,10 to 100,10 to 100,10 to 100,–,–,–,"COc1cc2nccc(Oc3ccc(NC(=O)C4(C(=O)Nc5ccc(F)cc5)CC4)cc3)c2cc1C(=O)NO [Compound 20, 1-N′-(4-fluorophenyl)-1-N-[4-[6-(hydroxycarbamoyl)-7-methoxyquinolin-4-yl]oxyphenyl]cyclopropane-1,1-dicarboxamide]"
10 to 100,10 to 100,10 to 100,≤ 10,–,–,–,"COc1cc2nccc(Oc3ccc(NC(=O)C4(C(=O)Nc5ccc(F)cc5)CC4)cc3)c2cc1C(=O)NOC1COC1 [Compound 26, 1-N′-(4-fluorophenyl)-1-N-[4-[7-methoxy-6-(oxetan-3-yloxycarbamoyl)quinolin-4-yl]oxyphenyl]cyclopropane-1,1-dicarboxamide]"
10 to 100,≤ 10,≤ 10,≤ 10,–,–,–,"COc1cc2nccc(Oc3ccc(NC(=O)C4(C(=O)Nc5ccc(F)cc5)CC4)cc3)c2cc1C(=O)NN [Compound 32, 1-N′-(4-fluorophenyl)-1-N-[4-[6-(hydrazinecarbonyl)-7-methoxyquinolin-4-yl]oxyphenyl]cyclopropane-1,1-dicarboxamide]"
10 to 100,100 to 300,10 to 100,100 to 300,–,–,–,"COc1cc2nccc(Oc3ccc(NC(=O)C4(C(=O)Nc5ccc(F)cc5)CC4)cc3)c2cc1P(C)(C)=O [Compound 51, 1-N-[4-(6-Dimethylphosphoryl-7-methoxyquinolin-4-yl)oxyphenyl]-1-N′-(4-fluorophenyl)cyclopropane-1,1-dicarboxamide]"
–,–,–,> 300,10 to 100,10 to 100,100 to 1000,"COc1cc2c(Oc3ccc(NC(=O)C4(C(=O)Nc5ccc(F)cc5)CC4)cc3)ccnc2cc1C(=O)O [Compound 151, 4-[4-[[1-[(4-fluorophenyl)carbamoyl]cyclopropanecarbonyl]amino]phenoxy]-6-methoxyquinoline-7-carboxylic acid]"
